From ChEMBL document CHEMBL1201862, “PubChem BioAssay data set” (2004)
Active and inactive are the calls of the source.

How the values were obtained:
[1] = target: T1, Neuropeptide Y receptor type 1 (Homo sapiens, UniProt P25929); type: functional;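 note: HEK293 cells with a CNG channel challenged with NPY then isoproterenol; potency as antagonist that reverses NPY suppression of cAMP signal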
T1 sequence (P25929 whole entry): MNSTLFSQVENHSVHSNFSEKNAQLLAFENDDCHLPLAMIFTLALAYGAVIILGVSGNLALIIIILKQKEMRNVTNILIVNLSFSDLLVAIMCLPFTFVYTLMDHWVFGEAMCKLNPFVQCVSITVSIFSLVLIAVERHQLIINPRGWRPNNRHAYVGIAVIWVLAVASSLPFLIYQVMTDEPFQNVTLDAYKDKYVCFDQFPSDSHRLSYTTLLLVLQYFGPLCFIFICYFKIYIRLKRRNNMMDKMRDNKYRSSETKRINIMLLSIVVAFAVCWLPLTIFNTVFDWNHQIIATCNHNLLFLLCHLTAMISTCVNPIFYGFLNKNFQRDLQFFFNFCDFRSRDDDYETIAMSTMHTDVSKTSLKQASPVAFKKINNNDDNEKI

[2] = target: T2, Neuropeptide Y receptor type 2 (Homo sapiens, UniProt P49146); type: functional, cell-based;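 note: HEK293 cells expressing the receptor and a CNG channel; stimulus was NPY near EC95 followed by isoproterenol to raise cAMP; antagonist potency measured as restoring cAMP signal that NPY suppresses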
T2 sequence (P49146 whole entry): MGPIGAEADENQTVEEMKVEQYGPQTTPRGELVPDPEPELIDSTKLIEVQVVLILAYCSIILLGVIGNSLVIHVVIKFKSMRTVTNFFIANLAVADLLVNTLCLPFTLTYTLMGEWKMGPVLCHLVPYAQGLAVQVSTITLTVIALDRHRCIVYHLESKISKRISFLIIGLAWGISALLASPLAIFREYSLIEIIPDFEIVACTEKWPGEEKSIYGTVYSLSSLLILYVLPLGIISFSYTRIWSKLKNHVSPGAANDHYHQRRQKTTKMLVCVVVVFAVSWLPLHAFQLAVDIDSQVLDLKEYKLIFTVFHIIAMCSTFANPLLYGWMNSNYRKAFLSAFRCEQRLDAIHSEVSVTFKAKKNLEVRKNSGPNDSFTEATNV

Cytochrome P450 2C9 = Cytochrome P450 2C9 (Homo sapiens, UniProt P11712)
Cytochrome P450 2C9, sequence (P11712 whole entry): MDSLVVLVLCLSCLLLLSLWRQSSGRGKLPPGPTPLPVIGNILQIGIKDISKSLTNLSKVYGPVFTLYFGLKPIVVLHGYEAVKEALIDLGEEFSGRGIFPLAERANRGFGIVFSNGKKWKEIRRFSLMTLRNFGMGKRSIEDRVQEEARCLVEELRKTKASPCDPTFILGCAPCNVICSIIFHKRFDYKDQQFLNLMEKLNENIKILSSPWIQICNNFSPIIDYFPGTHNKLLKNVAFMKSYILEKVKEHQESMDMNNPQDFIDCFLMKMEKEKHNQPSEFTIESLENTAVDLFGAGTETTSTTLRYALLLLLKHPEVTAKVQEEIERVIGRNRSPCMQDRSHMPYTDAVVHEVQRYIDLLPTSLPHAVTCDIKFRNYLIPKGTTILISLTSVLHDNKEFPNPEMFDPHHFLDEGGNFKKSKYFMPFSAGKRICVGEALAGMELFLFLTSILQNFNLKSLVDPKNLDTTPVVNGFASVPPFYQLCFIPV

[3] = M. tuberculosis growth inhibition, HTS (AID 449762); type: functional
[4] = target: Epstein-Barr nuclear antigen 1 (Epstein-Barr virus (strain B95-8) (HHV-4) (Human herpesvirus 4), UniProt P03211); test: inhibition of EBV nuclear antigen 1 DNA binding – biochemical, fluorescence polarization, 1536-well, dose response (AID 2381); parameters: species or system human gammaherpesvirus 4;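 note: fluorescence polarization of a Cy5 DNA probe bound by EBNA-1 protein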
Epstein-Barr nuclear antigen 1, sequence (P03211 whole entry): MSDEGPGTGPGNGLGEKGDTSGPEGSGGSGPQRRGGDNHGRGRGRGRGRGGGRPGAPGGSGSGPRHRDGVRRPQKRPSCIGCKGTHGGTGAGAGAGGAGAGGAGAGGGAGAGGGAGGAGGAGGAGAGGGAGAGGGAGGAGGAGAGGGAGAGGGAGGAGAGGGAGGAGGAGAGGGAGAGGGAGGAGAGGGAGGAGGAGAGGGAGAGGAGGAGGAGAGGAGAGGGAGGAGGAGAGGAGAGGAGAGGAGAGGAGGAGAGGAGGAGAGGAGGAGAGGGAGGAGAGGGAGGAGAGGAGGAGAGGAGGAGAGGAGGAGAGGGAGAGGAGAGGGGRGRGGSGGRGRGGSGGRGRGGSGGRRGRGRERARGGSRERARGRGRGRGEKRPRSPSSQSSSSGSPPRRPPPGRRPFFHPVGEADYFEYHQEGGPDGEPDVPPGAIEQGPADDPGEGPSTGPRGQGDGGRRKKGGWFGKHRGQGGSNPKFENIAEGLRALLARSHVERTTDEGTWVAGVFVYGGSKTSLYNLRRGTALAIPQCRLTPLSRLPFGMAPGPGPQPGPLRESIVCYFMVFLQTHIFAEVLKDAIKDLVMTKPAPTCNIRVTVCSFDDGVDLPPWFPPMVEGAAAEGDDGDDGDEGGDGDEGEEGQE

[5] = target: Lytic switch protein BZLF1 (Epstein-Barr virus (strain B95-8) (HHV-4) (Human herpesvirus 4), UniProt P03206); test: inhibition of BZLF1 ZTA DNA binding – biochemical, fluorescence polarization, Epstein-Barr virus, 1536-well, counter-screen for EBNA-1 inhibitor project, dose response (AID 2377); parameters: species or system human gammaherpesvirus 4;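 note: fluorescence polarization of Cy5-labelled ZRE DNA probe bound by purified Zta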
Lytic switch protein BZLF1, sequence (P03206 whole entry, the tested form may be a part): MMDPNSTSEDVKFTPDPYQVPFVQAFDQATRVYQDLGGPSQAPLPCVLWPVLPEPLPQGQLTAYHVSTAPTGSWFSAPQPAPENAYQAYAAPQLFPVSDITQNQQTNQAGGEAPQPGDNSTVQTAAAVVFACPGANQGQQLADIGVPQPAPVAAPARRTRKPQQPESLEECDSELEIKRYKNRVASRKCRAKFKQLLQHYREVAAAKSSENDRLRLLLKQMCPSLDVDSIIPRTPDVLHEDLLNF

[6] = target: T3, RNA-binding protein pos-1 (Caenorhabditis elegans, UniProt G5EF15); test: disruptors of C. elegans POS-1 RNA interaction – biochemical, fluorescence polarization, dose response (AID 1964);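 note: purified POS-1 fused to maltose binding protein made in E. coli; potency of compounds blocking POS-1 binding to fluorescent RNA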
T3 sequence (G5EF15 whole entry): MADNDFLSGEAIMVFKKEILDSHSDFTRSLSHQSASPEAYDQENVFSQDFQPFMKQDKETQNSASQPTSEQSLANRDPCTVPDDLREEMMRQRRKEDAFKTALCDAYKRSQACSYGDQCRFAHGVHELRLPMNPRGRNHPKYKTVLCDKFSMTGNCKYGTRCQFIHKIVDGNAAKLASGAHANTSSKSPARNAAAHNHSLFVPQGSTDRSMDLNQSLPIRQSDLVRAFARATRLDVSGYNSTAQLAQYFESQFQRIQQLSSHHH

[7] = target: T4, Zinc finger protein mex-5 (Caenorhabditis elegans, UniProt Q9XUB2); test: potency of MEX-5 RNA-binding blockers – biochemical, C. elegans, fluorescence polarization, dose response (AID 1960)
T4 sequence (Q9XUB2 whole entry): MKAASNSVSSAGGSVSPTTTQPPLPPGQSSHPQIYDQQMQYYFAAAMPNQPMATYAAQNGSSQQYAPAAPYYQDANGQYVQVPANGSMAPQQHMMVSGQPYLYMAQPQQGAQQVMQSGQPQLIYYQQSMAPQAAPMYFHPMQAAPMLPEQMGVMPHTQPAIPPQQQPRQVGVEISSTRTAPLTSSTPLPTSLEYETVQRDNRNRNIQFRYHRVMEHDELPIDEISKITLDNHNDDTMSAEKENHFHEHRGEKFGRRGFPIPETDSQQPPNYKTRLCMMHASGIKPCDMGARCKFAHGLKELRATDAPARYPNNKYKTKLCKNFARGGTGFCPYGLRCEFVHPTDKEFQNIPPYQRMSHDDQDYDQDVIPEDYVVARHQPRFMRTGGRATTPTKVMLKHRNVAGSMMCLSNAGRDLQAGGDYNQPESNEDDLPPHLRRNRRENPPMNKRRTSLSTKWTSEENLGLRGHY

[8] = target: T5, Induced myeloid leukemia cell differentiation protein Mcl-1 (Homo sapiens, UniProt Q07820); test: blockers of MCL1 binding to BIM peptide – biochemical, fluorescence polarization, BIM-BH3 peptide, 1536-well, dose response (AID 2217)
T5 sequence (Q07820 whole entry): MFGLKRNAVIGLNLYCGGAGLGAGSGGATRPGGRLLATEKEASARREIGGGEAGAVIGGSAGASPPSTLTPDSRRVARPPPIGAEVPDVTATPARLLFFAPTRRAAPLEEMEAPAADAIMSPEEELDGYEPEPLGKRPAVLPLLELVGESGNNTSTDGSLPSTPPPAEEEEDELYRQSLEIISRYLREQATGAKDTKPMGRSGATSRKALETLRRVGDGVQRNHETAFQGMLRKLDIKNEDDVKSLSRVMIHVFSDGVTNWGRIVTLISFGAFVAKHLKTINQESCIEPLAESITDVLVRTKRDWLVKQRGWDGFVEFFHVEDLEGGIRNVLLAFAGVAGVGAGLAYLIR

Bcl-2-like protein 1 = Bcl-2-like protein 1 (Homo sapiens, UniProt Q07817); test: blockers of BCLXL peptide binding – biochemical, fluorescence polarization, 1536-well, selectivity assay for MCL1 inhibitor project, dose response (AID 2218)
Bcl-2-like protein 1, sequence (Q07817 whole entry): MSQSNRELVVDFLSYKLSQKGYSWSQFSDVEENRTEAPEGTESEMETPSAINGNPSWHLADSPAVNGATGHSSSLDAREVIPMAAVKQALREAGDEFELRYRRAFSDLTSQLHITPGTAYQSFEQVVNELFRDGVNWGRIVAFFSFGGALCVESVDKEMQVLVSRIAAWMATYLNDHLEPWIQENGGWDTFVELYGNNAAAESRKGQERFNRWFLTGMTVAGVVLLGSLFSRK

Genome polyprotein = Genome polyprotein (dengue virus type 2, UniProt P29990); test: flavivirus cap methylation enzyme inhibition – biochemical, confirmation dose response, primary screen (AID 588689); type: functional
Genome polyprotein, sequence (P29990 2492-3391 limits assumed): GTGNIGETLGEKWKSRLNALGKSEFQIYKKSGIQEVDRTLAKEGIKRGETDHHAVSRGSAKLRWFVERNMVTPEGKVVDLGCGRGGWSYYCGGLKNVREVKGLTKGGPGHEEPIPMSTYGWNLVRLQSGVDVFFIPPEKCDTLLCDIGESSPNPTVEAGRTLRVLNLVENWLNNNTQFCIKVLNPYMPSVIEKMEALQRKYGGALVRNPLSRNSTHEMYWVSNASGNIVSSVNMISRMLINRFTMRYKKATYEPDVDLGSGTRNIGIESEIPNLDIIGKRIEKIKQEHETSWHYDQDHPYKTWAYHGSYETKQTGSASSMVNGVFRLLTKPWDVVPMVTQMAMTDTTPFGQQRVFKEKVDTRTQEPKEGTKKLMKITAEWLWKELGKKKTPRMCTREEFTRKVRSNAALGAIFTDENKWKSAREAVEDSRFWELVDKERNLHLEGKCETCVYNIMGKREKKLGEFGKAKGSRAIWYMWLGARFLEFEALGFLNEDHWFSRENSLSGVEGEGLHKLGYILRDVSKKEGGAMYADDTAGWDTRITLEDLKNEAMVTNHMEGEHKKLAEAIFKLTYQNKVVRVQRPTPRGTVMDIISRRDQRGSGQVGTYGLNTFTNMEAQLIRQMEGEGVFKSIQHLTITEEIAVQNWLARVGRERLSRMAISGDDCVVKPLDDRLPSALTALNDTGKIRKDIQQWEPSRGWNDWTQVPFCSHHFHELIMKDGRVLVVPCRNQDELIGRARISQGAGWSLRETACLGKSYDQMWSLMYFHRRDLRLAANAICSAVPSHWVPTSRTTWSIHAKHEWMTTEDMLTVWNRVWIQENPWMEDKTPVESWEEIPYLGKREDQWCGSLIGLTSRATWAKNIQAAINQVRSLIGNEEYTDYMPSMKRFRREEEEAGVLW

[9] = microbe, parasite or virus in culture; type: functional; settings: Mycobacterium tuberculosis
Vero = test: mammalian cell viability reduction – secondary assay, cytotoxicity control for West Nile virus antiviral project, dose response (AID 1650); type: functional; settings: Chlorocebus sabaeus
[10] = viability of PTEN-deleted HCT116 cells – cell-based, HCT116 PTEN knockout, dose response (AID 1047); type: functional;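 note: HCT116 colon tumor cells with PTEN knocked out; cells exposed to compound for 60 hours before readout; potency for loss of cell viability measured by luminescence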
[11] = viability of HCT116 lacking mutant beta-catenin – cell-based, human colon tumor, dose response (AID 1045); type: functional;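 note: HCT116 colon tumor cells with beta catenin knocked out; cells exposed to compound for 60 hours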
[12] = Trypanosoma cruzi growth suppression in host cells – NIH3T3 host cells, beta-gal luminescence, confirmation (AID 2044); type: functional, cell-based;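 note: intracellular parasites grown in NIH/3T3 mouse fibroblasts as host cells; luminescent beta-galactosidase reporter signal from transgenic T. cruzi replicating inside host cells; inhibitors lower the luminescence signal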
[13] = NIH3T3 cell viability loss – ATP luminescence, mouse fibroblasts, counter-screen, dose response (AID 2010); type: functional, cell-based;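 note: cells exposed to compound for about 90 hours before reading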
[14] = target: T6, Microphthalmia-associated transcription factor (Homo sapiens, UniProt O75030); test: reducers of TRPM1 reporter luminescence, concentration series – cell-based, SK-MEL-5, cherry-picked, set 3, MITF inhibitor project, dose response (AID 493073); type: functional;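 note: SK-MEL-5 melanoma cells with luciferase driven by the MITF target TRPM1 promoter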
T6 sequence (O75030 whole entry): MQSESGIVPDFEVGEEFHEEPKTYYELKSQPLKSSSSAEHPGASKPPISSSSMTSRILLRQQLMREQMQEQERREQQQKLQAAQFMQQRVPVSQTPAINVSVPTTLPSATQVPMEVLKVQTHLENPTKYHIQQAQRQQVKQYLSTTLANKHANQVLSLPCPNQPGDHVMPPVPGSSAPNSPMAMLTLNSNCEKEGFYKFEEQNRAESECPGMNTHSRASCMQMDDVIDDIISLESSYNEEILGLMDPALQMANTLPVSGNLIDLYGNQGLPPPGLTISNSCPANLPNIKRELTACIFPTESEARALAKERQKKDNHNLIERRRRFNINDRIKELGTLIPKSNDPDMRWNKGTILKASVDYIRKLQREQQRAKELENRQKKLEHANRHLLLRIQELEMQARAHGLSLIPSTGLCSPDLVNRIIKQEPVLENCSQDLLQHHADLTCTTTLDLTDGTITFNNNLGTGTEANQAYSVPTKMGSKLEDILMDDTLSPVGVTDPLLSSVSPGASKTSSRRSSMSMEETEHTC

[15] = NIH-3T3 fibroblast cytotoxicity, dose response, cytotoxicity control, cell-based, fluorescence, Alamar Blue, secondary assay (AID 2327); type: functional;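 note: NIH-3T3 mouse fibroblasts cultured with fluconazole at 8 µg/mL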
BJ [16] = test: BJ-TERT fibroblast viability loss – cell-based, RAS-independent, luminescence, dose response (AID 1933); type: functional; settings: Homo sapiens
BJ [17] = test: cells; type: functional, cell-based; settings: Homo sapiens
[18] = fluconazole-exposed Candida albicans growth modulators – fluorescence, retest, confirmation (AID 2467); type: functional, cell-based
BJ [19] = test: BJ-TERT-LT-ST fibroblast viability loss – cell-based, RAS-independent, luminescence, dose response (AID 1935); type: functional; settings: Homo sapiens;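 note: BJ fibroblasts immortalized with TERT plus LT and ST oncogenes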
[20] = DRD fibroblast viability loss – cell-based, non-viral oncogenic, luminescence, dose response (AID 1934); type: functional; settings: Homo sapiens
[21] = HEK-293T viability loss after treatment – luminescence, T-cell screen hits, cytotoxicity control for TCR NF-kB inhibitor project, dose response (AID 489026); type: functional, cell-based;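 note: cells exposed to compound about 14 hours before the viability readout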
[22] = target: T5, Induced myeloid leukemia cell differentiation protein Mcl-1; type: functional
Cytochrome P450 2C19 = Cytochrome P450 2C19 (Homo sapiens, UniProt P33261); test: Cytochrome panel assay with activity outcomes. Panel member name: p450-cyp2c19 Compounds with AC50 equal or less than 10 uM are considered active; type: functional; settings: read-out: AC50
Cytochrome P450 2C19, sequence (P33261 whole entry): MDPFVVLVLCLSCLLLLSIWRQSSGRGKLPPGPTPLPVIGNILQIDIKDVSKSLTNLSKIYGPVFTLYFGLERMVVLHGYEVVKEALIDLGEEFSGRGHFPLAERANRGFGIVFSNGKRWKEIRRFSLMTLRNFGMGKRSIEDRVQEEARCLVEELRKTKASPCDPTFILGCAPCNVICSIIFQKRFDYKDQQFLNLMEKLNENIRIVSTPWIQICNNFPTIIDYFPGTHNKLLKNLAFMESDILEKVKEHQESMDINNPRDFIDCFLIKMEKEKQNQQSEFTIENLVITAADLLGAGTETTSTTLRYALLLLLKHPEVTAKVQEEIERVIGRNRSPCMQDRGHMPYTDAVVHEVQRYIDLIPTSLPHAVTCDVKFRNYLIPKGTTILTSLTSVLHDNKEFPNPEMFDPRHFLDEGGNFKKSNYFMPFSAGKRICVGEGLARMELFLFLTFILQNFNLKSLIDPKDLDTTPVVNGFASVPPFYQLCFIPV

Cytochrome P450 2D6 = Cytochrome P450 2D6 (Homo sapiens, UniProt P10635);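 note: CYP2D6 member of a cytochrome P450 panel assay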
Cytochrome P450 2D6, sequence (P10635 whole entry): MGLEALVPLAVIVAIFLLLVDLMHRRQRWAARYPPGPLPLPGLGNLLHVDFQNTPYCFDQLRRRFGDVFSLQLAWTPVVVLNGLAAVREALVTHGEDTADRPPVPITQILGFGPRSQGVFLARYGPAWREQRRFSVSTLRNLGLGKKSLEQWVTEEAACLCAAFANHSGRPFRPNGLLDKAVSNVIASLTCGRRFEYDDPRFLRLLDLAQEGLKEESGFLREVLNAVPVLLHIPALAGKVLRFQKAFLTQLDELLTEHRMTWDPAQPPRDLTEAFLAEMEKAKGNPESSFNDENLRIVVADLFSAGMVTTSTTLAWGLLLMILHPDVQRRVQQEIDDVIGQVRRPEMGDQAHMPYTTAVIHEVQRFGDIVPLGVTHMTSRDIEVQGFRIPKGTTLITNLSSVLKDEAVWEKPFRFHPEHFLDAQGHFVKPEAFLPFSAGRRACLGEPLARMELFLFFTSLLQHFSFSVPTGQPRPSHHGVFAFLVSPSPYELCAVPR

Cytochrome P450 1A2 = target: T7, Cytochrome P450 1A2 (Homo sapiens, UniProt P05177);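 note: PubChem cytochrome P450 panel assay, CYP1A2 panel member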
T7 sequence (P05177 whole entry): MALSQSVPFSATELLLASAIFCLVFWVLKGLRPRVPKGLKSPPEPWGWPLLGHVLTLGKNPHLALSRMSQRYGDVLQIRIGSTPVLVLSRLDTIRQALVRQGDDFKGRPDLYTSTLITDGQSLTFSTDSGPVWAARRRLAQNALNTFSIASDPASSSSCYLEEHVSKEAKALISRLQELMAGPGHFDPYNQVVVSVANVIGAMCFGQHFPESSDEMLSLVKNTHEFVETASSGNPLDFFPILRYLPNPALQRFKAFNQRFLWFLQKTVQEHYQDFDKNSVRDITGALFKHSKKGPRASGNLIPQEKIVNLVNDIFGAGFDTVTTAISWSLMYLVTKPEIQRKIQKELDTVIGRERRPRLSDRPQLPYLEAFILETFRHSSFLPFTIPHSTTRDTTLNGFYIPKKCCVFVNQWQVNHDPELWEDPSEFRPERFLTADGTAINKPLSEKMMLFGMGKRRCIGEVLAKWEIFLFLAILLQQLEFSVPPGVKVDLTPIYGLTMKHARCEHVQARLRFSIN

Cytochrome P450 3A4 = Cytochrome P450 3A4 (Homo sapiens, UniProt P08684);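 note: CYP3A4 tested as one member of a cytochrome P450 panel screen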
Cytochrome P450 3A4, sequence (P08684 whole entry): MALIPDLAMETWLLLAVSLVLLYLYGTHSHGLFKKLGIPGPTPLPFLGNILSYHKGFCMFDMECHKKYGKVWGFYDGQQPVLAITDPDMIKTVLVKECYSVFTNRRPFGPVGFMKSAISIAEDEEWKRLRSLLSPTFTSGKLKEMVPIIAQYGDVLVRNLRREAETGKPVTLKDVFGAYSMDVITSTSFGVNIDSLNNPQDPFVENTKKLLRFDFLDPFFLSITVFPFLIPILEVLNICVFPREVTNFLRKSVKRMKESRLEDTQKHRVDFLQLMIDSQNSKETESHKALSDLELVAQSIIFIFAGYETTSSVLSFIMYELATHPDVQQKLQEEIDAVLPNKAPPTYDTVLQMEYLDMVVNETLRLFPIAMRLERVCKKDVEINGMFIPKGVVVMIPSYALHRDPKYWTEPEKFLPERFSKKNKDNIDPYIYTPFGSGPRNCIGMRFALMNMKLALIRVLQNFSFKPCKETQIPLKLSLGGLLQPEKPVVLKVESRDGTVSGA

[23] = target: E3 ubiquitin-protein ligase Mdm2 (Homo sapiens, UniProt Q00987); test: MDM2-luc reporter signal enhancers, multi-concentration potency testing, MDM2 ubiquitin-protein ligase inhibitor program, whole-cell format, luminescence detection, 384-well microplate (AID 1394); type: functional;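 note: MDM2 E3 inhibitors raise luminescence so EC50 is for signal enhancement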
E3 ubiquitin-protein ligase Mdm2, sequence (Q00987 whole entry): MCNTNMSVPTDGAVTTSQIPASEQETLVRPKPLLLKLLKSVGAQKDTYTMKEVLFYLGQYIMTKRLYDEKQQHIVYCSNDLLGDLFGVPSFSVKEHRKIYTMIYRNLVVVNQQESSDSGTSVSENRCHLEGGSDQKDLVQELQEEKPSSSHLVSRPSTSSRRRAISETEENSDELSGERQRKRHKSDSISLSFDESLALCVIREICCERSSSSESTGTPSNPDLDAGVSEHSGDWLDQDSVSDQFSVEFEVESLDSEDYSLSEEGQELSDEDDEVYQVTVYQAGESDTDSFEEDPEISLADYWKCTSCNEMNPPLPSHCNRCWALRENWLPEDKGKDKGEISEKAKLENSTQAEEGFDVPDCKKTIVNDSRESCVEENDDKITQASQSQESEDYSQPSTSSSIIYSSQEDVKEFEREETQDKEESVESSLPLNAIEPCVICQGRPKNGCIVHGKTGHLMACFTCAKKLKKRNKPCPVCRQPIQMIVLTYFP

Clc1ccccc1CSc1nnc(/C=C/c2ccccc2)o1
IC50 [1]: 6.96 µM (active)
IC50 [2]: 8.09 µM (active)
AC50 (Cytochrome P450 2C9): 7.94 µM (inconclusive)

CCCc1ncc(CN2CCCC(C(=O)Nc3ccc(-c4cccc(OC)c4)cc3)C2)cn1 (configuration not stated)
IC50 [3]: > 100 µM (active)

COc1ccc2oc(C(=O)OCC(=O)Nc3ccc(NC(C)=O)cc3)c(C)c2c1
IC50 [4]: 4.71 µM (active)
IC50 [5]: > 111 µM (not active)

Cc1nc2ccccc2c(=O)n1/N=C/c1ccc(O)c(O)c1O
EC50 [6]: 12.9 µM (active)
EC50 [7]: 0.193 µM (active)
IC50 [8]: 2.07 µM (active)
IC50 (Bcl-2-like protein 1): > 109 µM (not active)
IC50 (Genome polyprotein): > 100 µM (active)

CCSc1nc2ccc(OC)cc2cc1C#N
IC50 [1]: 11.1 µM (not active)
IC50 [2]: 17.8 µM (not active)

C/C(=N\NC(=O)c1cc2c(s1)CCC(C)C2)c1ccncc1 (configuration not stated)
IC50 [3]: > 100 µM (active)
CC50 [9]: > 40 µM (active)

COc1ccc(-c2cc(-c3ccc(C)cc3)nc(SCc3nnc(-c4ccccc4)o3)c2C#N)cc1OC
CC50 (Vero): 14.1 µM (active)
EC50 [10]: 4.41 µM (active)
EC50 [11]: 4.36 µM (active)

C/C(=N/NC(=O)C(O)(c1ccccc1)c1ccccc1)c1ccc([N+](=O)[O-])o1
EC50 [12]: < 0.1 µM (active)
EC50 [13]: > 60 µM (not active)
AC50 [14]: 9.84 µM (active)
EC50 (cells): 0.222 µM (active)

Cc1ccc2c(c1)sc(-c1ccc(N(C)C)cc1)[n+]2C
EC50 [15]: > 160 µM (inactive)
EC50 (BJ [16]): 3.83 µM (active)
EC50 (BJ [17]): 0.609 µM (active)
EC50 [18]: 0.039 µM (active)
EC50 [12]: < 0.1 µM (active)
EC50 [13]: > 60 µM (not active)
EC50 (BJ [19]): 20.9 µM (inconclusive)
EC50 [20]: 14.5 µM (active)
IC50 [21]: > 80 µM (inactive)
EC50 (cells): < 0.004 µM (active)

O=C(N/N=C/c1ccncc1)c1cc([N+](=O)[O-])cc([N+](=O)[O-])c1O
IC50 [8]: > 36.3 µM (not active)
IC50 (Bcl-2-like protein 1): > 109 µM (not active)
IC50 [22]: 3.25 µM (active)
AC50 (Cytochrome P450 2C19): 2.51 µM (inconclusive)
AC50 (Cytochrome P450 2D6): 14.1 µM (inconclusive)
AC50 (Cytochrome P450 1A2): 5.01 µM (inconclusive)
AC50 (Cytochrome P450 3A4): 1 µM (inconclusive)

CCN(CC(=O)Nc1ccc(N2CCOCC2)cc1)Cc1nc2ccccc2c(=O)[nH]1
EC50 [23]: 0.03 µM (not active)
AC50 (Cytochrome P450 2C19): 22.4 µM (inconclusive)
AC50 (Cytochrome P450 1A2): 20 µM (inconclusive)
